# Laboratory results published in ChEMBL document CHEMBL1201862, “PubChem BioAssay data set” (2004).
# Where “and” joins values, the source holds several entries; their conditions need not be identical. Equal entries are not always repeated.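 All cell lines were grown in 96-well plates and treated with compound for 48 hours. At the GI50, growth is halved.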 Calls of active or inactive are those of the source. Cut-off read from the data, not from the text of the source: active = GI50 up to about 1.1 µM and inactive = higher.
# Experiments:
# Test in all cases: inhibition of tumour cell growth, NCI panel, 48 h
# [1] = test system: SF-268
# [2] = test system: SK-OV-3
# [3] = test system: RXF 393
# [4] = test system: MDA-MB-435
# [5] = test system: CCRF-CEM
# [6] = test system: DU-145
# [7] = test system: NCI-H23
# [8] = test system: NCI-H226
# [9] = test system: SNB-75
# [10] = test system: KM12
# [11] = test system: SN12C
# [12] = test system: A498
# [13] = test system: IGROV-1
# [14] = test system: SF-295
# [15] = test system: OVCAR-4
# [16] = test system: SNB-19
# [17] = test system: T47D
# [18] = test system: NCI-H460
# [19] = test system: UACC-257
# [20] = test system: PC-3
# [21] = test system: COLO 205
# [22] = test system: OVCAR-5
# [23] = test system: HOP-92
# [24] = test system: UACC-62
# [25] = test system: UO-31
# [26] = test system: SW-620
# [27] = test system: TK-10
# [28] = test system: SF-539
# [29] = test system: HOP-62
# [30] = test system: U-251
# [31] = test system: HCT-116
# [32] = test system: MDA-MB-231
# [33] = test system: HCT-15
# [34] = test system: MCF7
# [35] = test system: MDA-N
# [36] = test system: SK-MEL-28
# [37] = test system: SK-MEL-2
# [38] = test system: Hs-578T
# [39] = test system: HCC 2998
# [40] = test system: Malme-3M
# [41] = test system: NCI/ADR-RES
# [42] = test system: OVCAR-3
# [43] = test system: ACHN
# [44] = test system: EKVX
# [45] = test system: LOX IMVI
# [46] = test system: SR
# [47] = test system: A549
# [48] = test system: SK-MEL-5
# [49] = test system: 786-0
# [50] = test system: OVCAR-8
# [51] = test system: M14
# [52] = test system: MOLT-4
# [53] = test system: NCI-H522
# [54] = test system: RPMI-8226
# [55] = test system: HT-29
# [56] = test system: HL-60
# [57] = test system: K562
# [58] = test system: CAKI-1
structure (smiles),measurement,setting,value
C=C(C(=O)O)[C@@H]1C[C@@H]2O[C@H]1[C@@H](O)[C@@H](C)CCCC(C)=CCC[C@@]2(C)O,GI50,[1],> 100 µM (inactive)
same,GI50,[2],> 100 µM (inactive)
same,GI50,[3],> 100 µM (inactive) and > 89.1 µM (inactive)
same,GI50,[4],71.8 µM (inactive) and > 81.3 µM (inactive)
same,GI50,[5],33.3 µM (inactive) and > 46.8 µM (inactive)
same,GI50,[6],> 100 µM (inactive)
same,GI50,[7],> 100 µM (inactive)
same,GI50,[8],> 100 µM (inactive)
same,GI50,[9],> 100 µM (inactive)
same,GI50,[10],> 100 µM (inactive)
same,GI50,[11],> 100 µM (inactive)
same,GI50,[12],> 100 µM (inactive)
same,GI50,[13],92.9 µM (inactive) and > 75 µM (inactive)
same,GI50,[14],> 100 µM (inactive)
same,GI50,[15],> 100 µM (inactive)
same,GI50,[16],> 100 µM (inactive)
same,GI50,[17],> 100 µM (inactive) and > 84.9 µM (inactive)
same,GI50,[18],> 100 µM (inactive)
same,GI50,[19],> 100 µM (inactive)
same,GI50,[20],> 100 µM (inactive)
same,GI50,[21],> 100 µM (inactive) and 72.6 µM (inactive)
same,GI50,[22],> 100 µM (inactive)
same,GI50,[23],> 100 µM (inactive) and 99.8 µM (inactive)
same,GI50,[24],> 100 µM (inactive) and > 90.4 µM (inactive)
same,GI50,[25],> 100 µM (inactive) and 69 µM (inactive)
same,GI50,[26],39.8 µM (inactive) and 58.1 µM (inactive)
same,GI50,[27],> 100 µM (inactive) and > 52.1 µM (inactive)
same,GI50,[28],87.5 µM (inactive)
same,GI50,[29],> 100 µM (inactive)
same,GI50,[30],> 100 µM (inactive) and 97.3 µM (inactive)
same,GI50,[31],64.1 µM (inactive) and > 83.4 µM (inactive)
same,GI50,[32],> 100 µM (inactive)
same,GI50,[33],> 100 µM and 78.3 µM
same,GI50,[34],46 µM (inactive) and > 91.6 µM (inactive)
same,GI50,[35],59.4 µM (inactive) and 71.1 µM (inactive)
same,GI50,[36],> 100 µM (inactive)
same,GI50,[37],> 100 µM (inactive)
same,GI50,[38],> 100 µM (inactive)
same,GI50,[39],> 100 µM (inactive)
same,GI50,[40],> 100 µM (inactive) and > 72.9 µM (inactive)
same,GI50,[41],> 100 µM (inactive)
same,GI50,[42],> 100 µM (inactive) and > 88.7 µM (inactive)
same,GI50,[43],90.6 µM (inactive)
same,GI50,[44],> 100 µM (inactive) and > 94.4 µM (inactive)
same,GI50,[45],41.3 µM (inactive) and > 47.2 µM (inactive)
same,GI50,[46],49.1 µM (inactive)
same,GI50,[47],> 100 µM (inactive)
same,GI50,[48],> 100 µM (inactive) and > 91.6 µM (inactive)
same,GI50,[49],56.6 µM (inactive) and > 69.5 µM (inactive)
same,GI50,[50],> 100 µM (inactive)
same,GI50,[51],> 100 µM (inactive) and > 77.4 µM (inactive)
Cc1cc(OCc2nnc3n2N=C(c2cc(F)c(Cl)cc2Cl)/C(=C/c2ccc(Cl)cc2)S3)ccc1Cl,GI50,[52],0.337 µM (active)
same,GI50,[1],22.8 µM (inactive)
same,GI50,[2],50.9 µM (inactive)
same,GI50,[53],14.7 µM (inactive)
same,GI50,[3],17 µM (inactive)
same,GI50,[4],24.2 µM (inactive)
same,GI50,[5],2.95 µM (inactive)
same,GI50,[6],17.4 µM (inactive)
same,GI50,[7],27.4 µM (inactive)
same,GI50,[54],11.7 µM (inactive)
same,GI50,[8],46 µM (inactive)
same,GI50,[10],22.9 µM (inactive)
same,GI50,[12],24.2 µM (inactive)
same,GI50,[13],20.9 µM (inactive)
same,GI50,[14],29.9 µM (inactive)
same,GI50,[15],19.5 µM (inactive)
same,GI50,[17],20.4 µM (inactive)
same,GI50,[18],25.9 µM (inactive)
same,GI50,[19],38.5 µM (inactive)
same,GI50,[55],16.7 µM (inactive)
same,GI50,[20],21.4 µM (inactive)
same,GI50,[56],1.91 µM (inactive)
same,GI50,[22],24.1 µM (inactive)
same,GI50,[23],18.1 µM (inactive)
same,GI50,[25],27.5 µM (inactive)
same,GI50,[57],8.38 µM (inactive)
same,GI50,[26],17.4 µM (inactive)
same,GI50,[27],32.6 µM (inactive)
same,GI50,[28],44.9 µM (inactive)
same,GI50,[29],43.1 µM (inactive)
same,GI50,[30],18.3 µM (inactive)
same,GI50,[31],12.8 µM (inactive)
same,GI50,[32],29.7 µM (inactive)
same,GI50,[33],19.7 µM
same,GI50,[34],23.3 µM (inactive)
same,GI50,[35],32.4 µM (inactive)
same,GI50,[36],19.8 µM (inactive)
same,GI50,[37],29 µM (inactive)
same,GI50,[38],15.2 µM (inactive)
same,GI50,[39],19.6 µM (inactive)
same,GI50,[41],33.2 µM (inactive)
same,GI50,[42],30.5 µM (inactive)
same,GI50,[43],33.5 µM (inactive)
same,GI50,[44],39.4 µM (inactive)
same,GI50,[45],21.9 µM (inactive)
same,GI50,[46],7.96 µM (inactive)
same,GI50,[58],18.6 µM (inactive)
same,GI50,[48],17.9 µM (inactive)
same,GI50,[49],28.1 µM (inactive)
same,GI50,[50],18.8 µM (inactive)
same,GI50,[51],25 µM (inactive)
Nc1ccccc1CC(O)C(=O)O (stereo not given),GI50,[52],> 100 µM (inactive)
same,GI50,[1],> 100 µM (inactive)
same,GI50,[2],> 100 µM (inactive)
same,GI50,[3],> 100 µM (inactive)
same,GI50,[4],> 100 µM (inactive)
same,GI50,[5],> 100 µM (inactive)
same,GI50,[6],> 100 µM (inactive)
same,GI50,[7],> 100 µM (inactive)
same,GI50,[54],> 100 µM (inactive)
same,GI50,[8],> 100 µM (inactive)
same,GI50,[9],> 100 µM (inactive)
same,GI50,[10],> 100 µM (inactive)
same,GI50,[11],> 100 µM (inactive)
same,GI50,[12],> 100 µM (inactive)
same,GI50,[14],> 100 µM (inactive)
same,GI50,[16],> 100 µM (inactive)
same,GI50,[17],> 100 µM (inactive)
same,GI50,[18],> 100 µM (inactive)
same,GI50,[19],> 100 µM (inactive)
same,GI50,[55],> 100 µM (inactive)
same,GI50,[20],> 100 µM (inactive)
same,GI50,[21],> 100 µM (inactive)
same,GI50,[56],> 100 µM (inactive)
same,GI50,[22],> 100 µM (inactive)
same,GI50,[23],> 100 µM (inactive)
same,GI50,[24],> 100 µM (inactive)
same,GI50,[57],> 100 µM (inactive)
same,GI50,[26],> 100 µM (inactive)
same,GI50,[27],> 100 µM (inactive)
same,GI50,[28],> 100 µM (inactive)
same,GI50,[29],> 100 µM (inactive)
same,GI50,[30],> 100 µM (inactive)
same,GI50,[31],> 100 µM (inactive)
same,GI50,[32],> 100 µM (inactive)
same,GI50,[33],> 100 µM
same,GI50,[34],> 100 µM (inactive)
same,GI50,[35],> 100 µM (inactive)
same,GI50,[36],> 100 µM (inactive)
same,GI50,[38],> 100 µM (inactive)
same,GI50,[39],> 100 µM (inactive)
same,GI50,[40],> 100 µM (inactive)
same,GI50,[41],> 100 µM (inactive)
same,GI50,[42],> 100 µM (inactive)
same,GI50,[43],> 100 µM (inactive)
same,GI50,[44],> 100 µM (inactive)
same,GI50,[45],> 100 µM (inactive)
same,GI50,[46],> 100 µM (inactive)
same,GI50,[47],> 100 µM (inactive)
same,GI50,[58],> 100 µM (inactive)
same,GI50,[48],> 100 µM (inactive)
same,GI50,[49],> 100 µM (inactive)
same,GI50,[50],> 100 µM (inactive)
same,GI50,[51],> 100 µM (inactive)
